Data on one molecule can be found in PMC5218480 (PLoS ONE, 2017).

In the experiment the test system is MV-4-11 cells. The experiment is described as follows: Gene expression microarray analysis (Affymetrix PrimeView) and GSEA. In kind it is cell-based, human. The following applies: ProbeSet 11732370_a_at; LIST D. On the set-up: RFU PODN (11730768_x_at) / Fold change /veh PODN (11730768_x_at) / RFU LINC00158 (11744669_a_at) / Fold change /veh LINC00158 (11744669_a_at) / RFU DUSP10 (11751237_a_at) / Fold change /veh DUSP10 (11751237_a_at) / RFU ID3 (11757404_x_at) / Fold change /veh ID3 (11757404_x_at) / RFU PLEKHG5 (11737974_s_at) / Fold change /veh PLEKHG5 (11737974_s_at) / RFU LRRC4B (11730491_at) / Fold change /veh LRRC4B (11730491_at) / RFU GIMAP4 (11747438_a_at) / Fold change /veh GIMAP4 (11747438_a_at) / RFU KRT8 (11758183_x_at) / Fold change /veh KRT8 (11758183_x_at) / RFU CNN1 (11734310_a_at) / Fold change /veh CNN1 (11734310_a_at) / RFU VPS37D (11726825_at) / Fold change /veh VPS37D (11726825_at) / RFU C10orf10 (11716522_x_at) / Fold change /veh C10orf10 (11716522_x_at) / RFU KIR2DL2 /// KIR2DL4 /// KIR2DL5A /// KIR2DL5B /// KIR2DS1 /// KIR2DS2 /// KIR2DS3 /// KIR2DS4 /// KIR3DL3 /// KIR3DL3 /// KIR3DS1 (11738374_at) / Fold change /veh KIR2DL2 /// KIR2DL4 /// KIR2DL5A /// KIR2DL5B /// KIR2DS1 /// KIR2DS2 /// KIR2DS3 /// KIR2DS4 /// KIR3DL3 /// KIR3DL3 /// KIR3DS1 (11738374_at) / RFU C1QL1 (11718748_at) / Fold change /veh C1QL1 (11718748_at) / RFU TMPRSS4 (11747572_a_at) / Fold change /veh TMPRSS4 (11747572_a_at) / RFU HAMP (11756126_x_at) / Fold change /veh HAMP (11756126_x_at) / RFU RNFT2 (11725882_a_at) / Fold change /veh RNFT2 (11725882_a_at) / RFU NR4A2 (11747474_a_at) / Fold change /veh NR4A2 (11747474_a_at) / RFU ABCC12 (11746883_a_at) / Fold change /veh ABCC12 (11746883_a_at) / RFU TMEM136 (11760407_x_at) / Fold change /veh TMEM136 (11760407_x_at) / RFU CLDN22 /// WWC2 (11732394_at) / Fold change /veh CLDN22 /// WWC2 (11732394_at) / RFU HLA-DPB1 (11760878_x_at) / Fold change /veh HLA-DPB1 (11760878_x_at) / RFU SPINT1 (11716480_a_at) / Fold change /veh SPINT1 (11716480_a_at) / RFU GAP43 (11754022_s_at) / Fold change /veh GAP43 (11754022_s_at) / RFU A4GNT (11735810_at) / Fold change /veh A4GNT (11735810_at) / RFU PRB3 (11715151_x_at) / Fold change /veh PRB3 (11715151_x_at) / RFU TUBB4B (11761932_at) / Fold change /veh TUBB4B (11761932_at) / RFU CAPN14 (11732068_a_at) / Fold change /veh CAPN14 (11732068_a_at) / RFU TMCC2 (11721928_a_at) / Fold change /veh TMCC2 (11721928_a_at) / RFU IRGQ (11745062_a_at) / Fold change /veh IRGQ (11745062_a_at) / RFU FAM174B (11720279_a_at) / Fold change /veh FAM174B (11720279_a_at) / RFU TMPRSS4 (11748680_a_at) / Fold change /veh TMPRSS4 (11748680_a_at) / RFU FAM212B (11763350_a_at) / Fold change /veh FAM212B (11763350_a_at) / RFU PLEKHG5 (11743358_a_at) / Fold change /veh PLEKHG5 (11743358_a_at) / RFU ZSCAN30 (11745921_a_at) / Fold change /veh ZSCAN30 (11745921_a_at) / RFU CMKLR1 (11741424_a_at) / Fold change /veh CMKLR1 (11741424_a_at) / RFU LOC101060620 /// MAPK8IP1 (11723275_at) / Fold change /veh LOC101060620 /// MAPK8IP1 (11723275_at) / RFU SPTSSB (11747773_x_at) / Fold change /veh SPTSSB (11747773_x_at) / RFU PRSS12 (11739890_at) / Fold change /veh PRSS12 (11739890_at) / RFU BIN1 (11741810_x_at) / Fold change /veh BIN1 (11741810_x_at) / RFU WNT11 (11732464_a_at) / Fold change /veh WNT11 (11732464_a_at) / RFU C10orf10 (11716521_a_at) / Fold change /veh C10orf10 (11716521_a_at) / RFU C5orf56 (11738089_at) / Fold change /veh C5orf56 (11738089_at) / RFU CYB561 (11721691_x_at) / Fold change /veh CYB561 (11721691_x_at) / RFU ANKRD19P (11752326_a_at) / Fold change /veh ANKRD19P (11752326_a_at) / RFU OR2T12 /// OR2T33 /// OR2T8 (11738714_s_at) / Fold change /veh OR2T12 /// OR2T33 /// OR2T8 (11738714_s_at) / RFU VCAN (11748164_a_at) / Fold change /veh VCAN (11748164_a_at) / RFU JSRP1 (11732532_at) / Fold change /veh JSRP1 (11732532_at) / RFU KRTAP10-11 (11738290_x_at) / Fold change /veh KRTAP10-11 (11738290_x_at) / RFU MYO3A (11730013_a_at) / Fold change /veh MYO3A (11730013_a_at) / RFU EBF3 (11725865_a_at) / Fold change /veh EBF3 (11725865_a_at) / RFU CAMK2N1 (11719241_x_at) / Fold change /veh CAMK2N1 (11719241_x_at) / RFU C5orf56 (11738088_a_at) / Fold change /veh C5orf56 (11738088_a_at) / RFU OLFML3 (11715873_a_at) / Fold change /veh OLFML3 (11715873_a_at) / RFU LOC100653217 /// NTM (11731650_a_at) / Fold change /veh LOC100653217 /// NTM (11731650_a_at) / RFU MAPK11 (11762145_a_at) / Fold change /veh MAPK11 (11762145_a_at) / RFU FIZ1 (11724087_x_at) / Fold change /veh FIZ1 (11724087_x_at) / RFU OASL (11726364_x_at) / Fold change /veh OASL (11726364_x_at) / RFU SOX15 (11748057_x_at) / Fold change /veh SOX15 (11748057_x_at) / RFU CD79A (11719716_a_at) / Fold change /veh CD79A (11719716_a_at) / RFU HIST1H1D (11736915_at) / Fold change /veh HIST1H1D (11736915_at) / RFU CASKIN2 (11723855_a_at) / Fold change /veh CASKIN2 (11723855_a_at) / RFU LOC730098 (11760151_x_at) / Fold change /veh LOC730098 (11760151_x_at) / RFU OR4N2 (11742367_at) / Fold change /veh OR4N2 (11742367_at) / RFU PRRT2 (11749266_a_at) / Fold change /veh PRRT2 (11749266_a_at) / RFU SNX32 (11753110_a_at) / Fold change /veh SNX32 (11753110_a_at) / RFU CDHR5 (11726645_a_at) / Fold change /veh CDHR5 (11726645_a_at) / RFU RCAN1 (11760418_a_at) / Fold change /veh RCAN1 (11760418_a_at) / RFU FAM167A (11723789_a_at) / Fold change /veh FAM167A (11723789_a_at) / RFU FAM26E (11764081_at) / Fold change /veh FAM26E (11764081_at) / RFU ISYNA1 (11749810_s_at) / Fold change /veh ISYNA1 (11749810_s_at) / RFU ACY1 (11761880_at) / Fold change /veh ACY1 (11761880_at) / RFU 11764098_at / Fold change /veh 11764098_at / RFU SAMD14 (11745864_x_at) / Fold change /veh SAMD14 (11745864_x_at) / RFU NPB (11741838_a_at) / Fold change /veh NPB (11741838_a_at) / RFU TMPRSS6 (11731388_a_at) / Fold change /veh TMPRSS6 (11731388_a_at) / RFU KRTAP10-2 (11738614_at) / Fold change /veh KRTAP10-2 (11738614_at) / RFU ARHGAP8 /// PRR5-ARHGAP8 (11727945_x_at) / Fold change /veh ARHGAP8 /// PRR5-ARHGAP8 (11727945_x_at) / RFU KRTAP5-7 /// NADSYN1 (11734609_at) / Fold change /veh KRTAP5-7 /// NADSYN1 (11734609_at) / RFU RASL12 (11751679_a_at) / Fold change /veh RASL12 (11751679_a_at) / RFU CDKN2B (11736163_a_at) / Fold change /veh CDKN2B (11736163_a_at) / RFU PRF1 (11729649_at) / Fold change /veh PRF1 (11729649_at) / RFU, ZNF638 /// ZNF638-IT1 / Fold change vs veh, ZNF638 /// ZNF638-IT1 / RFU, PANK3 / Fold change vs veh, PANK3 / RFU, SH3YL1 / Fold change vs veh, SH3YL1 / RFU, ZEB2 / Fold change vs veh, ZEB2 / RFU, NRIP1 / Fold change vs veh, NRIP1 / RFU, PTTG1IP / Fold change vs veh, PTTG1IP / RFU, CAPN2 / Fold change vs veh, CAPN2 / RFU, MED14 / Fold change vs veh, MED14 / RFU, SNORA58 / Fold change vs veh, SNORA58 / RFU, C1orf63 / Fold change vs veh, C1orf63 / RFU, LRRFIP1 / Fold change vs veh, LRRFIP1 / RFU, NDUFAF7 / Fold change vs veh, NDUFAF7 / RFU, SLC12A2 / Fold change vs veh, SLC12A2 / RFU, IBTK / Fold change vs veh, IBTK / RFU, ESF1 / Fold change vs veh, ESF1 / Fold change vs veh, TMEM50B / RFU, TAOK1 / Fold change vs veh, TAOK1 / RFU, ACBD3 / Fold change vs veh, ACBD3 / RFU, TMA16 / Fold change vs veh, TMA16 / RFU, RWDD3 / Fold change vs veh, RWDD3 / RFU, BCAT1 / Fold change vs veh, BCAT1 / RFU, EDEM3 / Fold change vs veh, EDEM3 / RFU, TMEM33 / Fold change vs veh, TMEM33 / RFU, WDR75 / Fold change vs veh, WDR75 / RFU, AHCTF1 / Fold change vs veh, AHCTF1 / RFU, TFRC / Fold change vs veh, TFRC / RFU, ZDHHC17 / Fold change vs veh, ZDHHC17 / RFU, NOM1 / Fold change vs veh, NOM1 / RFU, ARL8B / Fold change vs veh, ARL8B / RFU, ZBTB11 / Fold change vs veh, ZBTB11 / RFU, TAMM41 / Fold change vs veh, TAMM41 / RFU, KIAA1704 /// LOC100996395 / Fold change vs veh, KIAA1704 /// LOC100996395 / RFU, ING1 / Fold change vs veh, ING1 / RFU, TRMT61B / Fold change vs veh, TRMT61B / RFU, FUBP3 / Fold change vs veh, FUBP3 / RFU, TP53 / Fold change vs veh, TP53 / RFU, TNKS2 / Fold change vs veh, TNKS2 / RFU, ZFP14 / Fold change vs veh, ZFP14 / RFU, ACTR2 / Fold change vs veh, ACTR2 / RFU, PPP3R1 / Fold change vs veh, PPP3R1 / RFU, PIK3R1 / Fold change vs veh, PIK3R1 / RFU, HNRNPA1 / Fold change vs veh, HNRNPA1 / RFU, RNF170 / Fold change vs veh, RNF170 / RFU, ZNF28 / Fold change vs veh, ZNF28 / RFU, RNGTT / Fold change vs veh, RNGTT / RFU, OGT / Fold change vs veh, OGT / RFU, BRD1 / Fold change vs veh, BRD1 / RFU, MARS / Fold change vs veh, MARS / RFU, ZNF655 / Fold change vs veh, ZNF655 / RFU, FAHD1 / Fold change vs veh, FAHD1 / RFU, BDP1 / Fold change vs veh, BDP1 / RFU, LRRCC1 / Fold change vs veh, LRRCC1 / RFU, ARID1A / Fold change vs veh, ARID1A / RFU, ZNF146 / Fold change vs veh, ZNF146 / RFU, ZNF330 / Fold change vs veh, ZNF330 / RFU, GPN3 / Fold change vs veh, GPN3 / RFU, C9orf123 / Fold change vs veh, C9orf123 / RFU, N4BP2L2 / Fold change vs veh, N4BP2L2 / RFU, ARFIP1 / Fold change vs veh, ARFIP1 / RFU, FAM179B / Fold change vs veh, FAM179B / RFU, BCL10 / Fold change vs veh, BCL10 / RFU, UHRF1BP1L / Fold change vs veh, UHRF1BP1L / RFU, BET1 / Fold change vs veh, BET1 / RFU, CNOT2 / Fold change vs veh, CNOT2 / RFU, ZNF268 / Fold change vs veh, ZNF268 / Fold change vs veh, ZNF507 / RFU, DGCR2 / Fold change vs veh, DGCR2 / RFU, WDSUB1 / Fold change vs veh, WDSUB1 / Fold change vs veh, HSP90B1 /// MIR3652 / RFU, ADSS / Fold change vs veh, ADSS / RFU, GK / Fold change vs veh, GK / RFU, ZNF148 / Fold change vs veh, ZNF148 / RFU, TAF9 / Fold change vs veh, TAF9 / RFU, SLC1A5 / Fold change vs veh, SLC1A5 / RFU, SLMO2 / Fold change vs veh, SLMO2 / RFU, ABCC4 / Fold change vs veh, ABCC4 / RFU, LOC101060439 /// RAP1B / Fold change vs veh, LOC101060439 /// RAP1B / RFU, RFX7 / Fold change vs veh, RFX7 / RFU, GTPBP10 / Fold change vs veh, GTPBP10 / RFU, CNEP1R1 / Fold change vs veh, CNEP1R1 / RFU, BIVM-ERCC5 /// ERCC5 / Fold change vs veh, BIVM-ERCC5 /// ERCC5 / RFU, ILF3 / Fold change vs veh, ILF3 / RFU 11762660_at / Fold change /veh 11762660_at / RFU VCAN (11757783_s_at) / Fold change /veh VCAN (11757783_s_at) / RFU DDX43 (11728927_at) / Fold change /veh DDX43 (11728927_at) / RFU KRT8 (11758188_x_at) / Fold change /veh KRT8 (11758188_x_at) / RFU NKD1 (11759106_at) / Fold change /veh NKD1 (11759106_at) / RFU SRD5A1 (11742802_a_at) / Fold change /veh SRD5A1 (11742802_a_at) / RFU TPSAB1 /// TPSB2 (11721975_s_at) / Fold change /veh TPSAB1 /// TPSB2 (11721975_s_at) / RFU GSTM3 (11746129_a_at) / Fold change /veh GSTM3 (11746129_a_at) / RFU IL23R (11737362_x_at) / Fold change /veh IL23R (11737362_x_at) / RFU TMEM51 (11727254_a_at) / Fold change /veh TMEM51 (11727254_a_at) / RFU PIWIL2 (11732686_x_at) / Fold change /veh PIWIL2 (11732686_x_at) / RFU ORM1 (11744905_x_at) / Fold change /veh ORM1 (11744905_x_at) / RFU CCDC152 (11743942_at) / Fold change /veh CCDC152 (11743942_at) / RFU ECM1 (11717891_a_at) / Fold change /veh ECM1 (11717891_a_at) / RFU IL23R (11748794_a_at) / Fold change /veh IL23R (11748794_a_at) / RFU TNFAIP8L3 (11732012_x_at) / Fold change /veh TNFAIP8L3 (11732012_x_at) / RFU MBOAT4 (11741988_at) / Fold change /veh MBOAT4 (11741988_at) / RFU 11764193_at / Fold change /veh 11764193_at / RFU TMEM53 (11763286_at) / Fold change /veh TMEM53 (11763286_at) / RFU MAGEB2 (11727129_at) / Fold change /veh MAGEB2 (11727129_at) / RFU TMEM200A (11744735_a_at) / Fold change /veh TMEM200A (11744735_a_at) / RFU CCDC152 (11751479_a_at) / Fold change /veh CCDC152 (11751479_a_at) / RFU FAM211A (11726209_a_at) / Fold change /veh FAM211A (11726209_a_at) / RFU RGS16 (11746705_a_at) / Fold change /veh RGS16 (11746705_a_at) / RFU VCAN (11755009_s_at) / Fold change /veh VCAN (11755009_s_at) / RFU RHOB (11743442_s_at) / Fold change /veh RHOB (11743442_s_at) / RFU RGS16 (11720943_a_at) / Fold change /veh RGS16 (11720943_a_at) / RFU RGS16 (11720944_at) / Fold change /veh RGS16 (11720944_at) / RFU, VPS4B / Fold change vs veh, VPS4B / RFU, CREB1 / Fold change vs veh, CREB1 / RFU, DNAJC13 / Fold change vs veh, DNAJC13 / RFU, GNAQ / Fold change vs veh, GNAQ / RFU, CDK5R1 / Fold change vs veh, CDK5R1 / RFU, ZRANB3 / Fold change vs veh, ZRANB3 / RFU, CUL4A / Fold change vs veh, CUL4A / RFU, CCNY / Fold change vs veh, CCNY / RFU, UFL1 / Fold change vs veh, UFL1 / RFU, COG3 / Fold change vs veh, COG3 / RFU, DIAPH2 / Fold change vs veh, DIAPH2 / RFU, SKA2 / Fold change vs veh, SKA2 / RFU, AFF3 / Fold change vs veh, AFF3 / RFU, LMF1 / Fold change vs veh, LMF1 / RFU, IPO11 / Fold change vs veh, IPO11 / RFU, DFFB / Fold change vs veh, DFFB / RFU, FOXP1 / Fold change vs veh, FOXP1 / RFU, CARD8 / Fold change vs veh, CARD8 / RFU, STRN3 / Fold change vs veh, STRN3 / RFU, ADK / Fold change vs veh, ADK / RFU, RASSF2 / Fold change vs veh, RASSF2 / RFU, WIPF1 / Fold change vs veh, WIPF1 / RFU, LARP1B / Fold change vs veh, LARP1B / RFU, RASA1 / Fold change vs veh, RASA1 / RFU, RB1 / Fold change vs veh, RB1 / RFU, PPFIA1 / Fold change vs veh, PPFIA1 / RFU, MAT2A / Fold change vs veh, MAT2A / RFU, CCT5 / Fold change vs veh, CCT5 / RFU, WDR92 / Fold change vs veh, WDR92 / RFU, CUX1 / Fold change vs veh, CUX1 / RFU, TTC7A / Fold change vs veh, TTC7A / RFU, TMEM135 / Fold change vs veh, TMEM135 / RFU, DEPTOR / Fold change vs veh, DEPTOR / RFU, CPM / Fold change vs veh, CPM / RFU, DNAJB6 / Fold change vs veh, DNAJB6 / RFU, CACNA2D3 / Fold change vs veh, CACNA2D3 / RFU, DTX4 / Fold change vs veh, DTX4 / RFU, TFCP2 / Fold change vs veh, TFCP2 / RFU, GMCL1 /// GMCL1P1 / Fold change vs veh, GMCL1 /// GMCL1P1 / RFU, AEBP2 / Fold change vs veh, AEBP2 / RFU, SNHG1 /// SNORD22 /// SNORD25 /// SNORD26 /// SNORD27 /// SNORD28 /// SNORD29 /// SNORD31 / Fold change vs veh, SNHG1 /// SNORD22 /// SNORD25 /// SNORD26 /// SNORD27 /// SNORD28 /// SNORD29 /// SNORD31 / Fold change (Aza/veh), C12orf56 (ProbeSet 11735607_a_at) / Fold change (ACY-1035/veh), C12orf56 (ProbeSet 11735607_a_at) / Fold change (Aza/veh), FGFR1OP (ProbeSet 11751329_s_at) / Fold change (ACY-1035/veh), FGFR1OP (ProbeSet 11751329_s_at) / Fold change (Aza/veh), VPS36 (ProbeSet 11739960_a_at) / Fold change (ACY-1035/veh), VPS36 (ProbeSet 11739960_a_at) / RFU SYPL1 (11715823_x_at) / Fold change /veh SYPL1 (11715823_x_at) / RFU IGFBP7 (11715501_s_at) / Fold change /veh IGFBP7 (11715501_s_at) / RFU REEP3 (11722064_at) / Fold change /veh REEP3 (11722064_at) / RFU IGLL1 (11728026_x_at) / Fold change /veh IGLL1 (11728026_x_at): dose or concentration left out as unconfirmed.

For the molecule `Nc1ncn([C@@H]2O[C@H](CO)[C@@H](O)[C@H]2O)c(=O)n1` [azacitidine], the “Fold change vs veh, CUX1” value was found to be 0.72.
